Measured values from patent US20260263340A1, “Cosmetic Products and Cleaning Products Stabilized Against Microbial Attack” (Thor GmbH, priority 2023, published 2026).
Counter-ions that a name gives are not always drawn.

How the values were obtained:
[1] = test system: bacteria mixture 3; test: Repeated-inoculation microbiological stress test of body lotion, bacteria mixture 3; assay type: cell-based, Nesterenkonia spec.; set-up: key to Bacterial growth after inoculation: 0: No growth; Minimal growth, 1 to 10 colonies visible over the entire streak; 2: Light growth, maximum 100 colonies; Moderate growth, maximum 300 to 400 colonies; Uniform growth, >400 colonies, single colonies still clearly recognizable; 5: Heavy growth, too many colonies to count, but no growth over the entire streak; 6: Full growth, barely any single colonies still apparent, growth over the entire streak; conditions: for Bacterial growth after inoculation: Body lotion, 6 d
Text: (§1) The tested cleaning composition was an all-purpose cleaner without preservatives and having a pH of 7.7, the skin lotion was a body lotion without preservatives and having a pH of 7.1, and the shampoo was a hair shampoo without preservatives and having a pH of 6.9.
(§2) The cleaning composition was admixed with particular concentrations of guanidine carbonate and guanidine hydrochloride and homogenized. The body lotion and the hair shampoo were each admixed and homogenized with guanidine hydrochloride and with octane-1,2-diol alone or in combination.
(§3) The batches of the products thus obtained were inoculated repeatedly at particular intervals with bacteria mixtures or yeast mixtures that are used as standard for microbiological stress tests of industrial products or cosmetic products (bacteria mixture 1 and 2, yeast mixture 1 and 2).
(§4) The inoculum was added to the respective sample in each inoculation at 2% (v/w) as a fresh cell suspension in a physiological saline solution (0.9% NaCl). The cell count of the inoculum added was 10^8-10^9/ml for the bacteria mixtures, 10^7-10^8/ml for the yeast mixtures, consisting in equal parts of the individual bacteria strains or yeast strains.
The cell suspension of the bacteria mixtures was produced by growing the individual bacteria at 30° C. for 24 h in liquid culture on a shaker. The medium used to grow the bacteria from bacteria mixtures 1 and 2 was Müller-Hinton liquid medium. The bacteria from bacteria mixture 3 were grown in Müller-Hinton liquid medium that had been adjusted to pH 9.5 to 9.7 with an alkaline buffer solution beforehand. After growing, the individual liquid cultures were centrifuged, and the cells were resuspended in physiological saline solution. In order to adjust the mixtures to a total cell count of 10^8 to 10^9/ml, the individual bacteria suspensions, if necessary, were diluted accordingly before being combined with saline solution. The cell count of the inoculum suspensions was determined in each case by chamber counting.
(§5) In the examples, the samples were inoculated three times at weekly intervals with the respective cell suspensions (2% v/w) and the evolution of the bacteria or yeasts was followed by a semiquantitative evaluation method. After each inoculation, microbial infestation in the samples was evaluated in each case after incubation at 30° C. for 6 to 7 days. For this purpose, an aliquot was taken from each sample after homogenization using a sterile plastic inoculation loop (10 μl) and streaked evenly on agar plates (bacteria mixture 1 and 2 on tryptic soy agar, bacteria mixture 3 on DSMZ 31 alkaline nutrient agar, Sabouraud glucose-agar in the case of yeasts). The streaked agar plates were then incubated at 30° C. for 48 hours (bacteria mixture 1 and 2) or 5 to 7 days (bacteria mixture 3), or at 25° C. for 72 hours (yeast mixtures). After incubation, the bacteria colonies or yeast colonies that have grown on the agar plates were visually evaluated and quantified according to the following scheme:
Inoculation 2% (w/v) with bacteria mixture 3, cell count 10^8/ml

[2] = test system: yeast mixture 1; test: Repeated-inoculation microbiological stress test of all-purpose cleaner, yeast mixture 1; assay type: cell-based; set-up: key to Yeast growth after inoculation: 0: No growth; Minimal growth, 1 to 10 colonies visible over the entire streak; 2: Light growth, maximum 100 colonies; Moderate growth, maximum 300 to 400 colonies; Uniform growth, >400 colonies, single colonies still clearly recognizable; 5: Heavy growth, too many colonies to count, but no growth over the entire streak; 6: Full growth, barely any single colonies still apparent, growth over the entire streak; conditions: for Yeast growth after inoculation: All-purpose cleaner, 6 d
Text: as §1, §2, §3, §4
(§6) The cell suspension of the yeast mixtures was produced by growing the yeast strains on Sabouraud glucose-agar at 25° C. for 48 hours and washing down the cell lawn in each case with physiological saline solution (0.9% NaCl). Further steps for establishment of a cell count of the inoculum suspension of 10^7/ml to 10^8/ml were effected analogously to the production of the bacteria suspensions.
as §5
Inoculation 2% (w/v) with yeast mixture 1, cell count 10^8/ml

[3] = test system: yeast mixture 2; test: Repeated-inoculation microbiological stress test of body lotion, yeast mixture 2; assay type: cell-based, Candida albicans, Candida parapsilosis; set-up: key to Yeast growth after inoculation: 0: No growth; Minimal growth, 1 to 10 colonies visible over the entire streak; 2: Light growth, maximum 100 colonies; Moderate growth, maximum 300 to 400 colonies; Uniform growth, >400 colonies, single colonies still clearly recognizable; 5: Heavy growth, too many colonies to count, but no growth over the entire streak; 6: Full growth, barely any single colonies still apparent, growth over the entire streak; conditions: for Yeast growth after inoculation: Body lotion, 6 d
Text: as §1, §2, §3, §4, §6, §5
(§7) Inoculation 2% (w/v) with yeast mixture 2, cell count 10^7/ml

[4] = test system: yeast mixture 2; test: Repeated-inoculation microbiological stress test of shampoo, yeast mixture 2; assay type: cell-based, Candida albicans, Candida parapsilosis; set-up: key to Yeast growth after inoculation: 0: No growth; Minimal growth, 1 to 10 colonies visible over the entire streak; 2: Light growth, maximum 100 colonies; Moderate growth, maximum 300 to 400 colonies; Uniform growth, >400 colonies, single colonies still clearly recognizable; 5: Heavy growth, too many colonies to count, but no growth over the entire streak; 6: Full growth, barely any single colonies still apparent, growth over the entire streak; conditions: for Yeast growth after inoculation: Shampoo, 6 d
Text: as §1, §2, §3, §4, §6, §5, §7

[5] = +10000 ppm guanidine hydrochloride (6180 ppm guanidine) pH 6.8, 1. inoculation
[6] = +10000 ppm guanidine hydrochloride (6180 ppm guanidine) pH 6.8, 2. inoculation
[7] = +10000 ppm guanidine hydrochloride (6180 ppm guanidine) pH 6.8, 3. inoculation
[8] = +2500 ppm octanediol pH 7.0, 1. inoculation
[9] = +2500 ppm octanediol pH 7.0, 2. inoculation
[10] = +2500 ppm octanediol pH 7.0, 3. inoculation
[11] = +5000 ppm octanediol pH 7.0, 1. inoculation
[12] = +5000 ppm octanediol pH 7.0, 2. inoculation
[13] = +5000 ppm octanediol pH 7.0, 3. inoculation

N=C(N)N [guanidine hydrochloride]
Bacterial growth after inoculation [1, 5]: 6 | Bacterial growth after inoculation [1, 6]: 6 | Bacterial growth after inoculation [1, 7]: 6 | stability of the body lotion to microbial infestation by bacteria ([1]; addition of 3035 ppm of guanidine in the form of guanidine hydrochloride at pH 7.0): distinct improvement in stability | Yeast growth after inoculation ([2]; +1000 ppm guanidine hydrochloride (618 ppm guanidine) pH 7.7, 1. inoculation): 5 | Yeast growth after inoculation ([2]; +1000 ppm guanidine hydrochloride (618 ppm guanidine) pH 7.7, 2. inoculation): 6 | Yeast growth after inoculation ([2]; +1000 ppm guanidine hydrochloride (618 ppm guanidine) pH 7.7, 3. inoculation): 6 | Yeast growth after inoculation ([2]; +2500 ppm guanidine hydrochloride (1545 ppm guanidine) pH 7.7, 1. inoculation): 1 (Minimal growth, 1 to 10 colonies visible over the entire streak) | Yeast growth after inoculation ([2]; +2500 ppm guanidine hydrochloride (1545 ppm guanidine) pH 7.7, 2. inoculation): 1 (Minimal growth, 1 to 10 colonies visible over the entire streak) | Yeast growth after inoculation ([2]; +2500 ppm guanidine hydrochloride (1545 ppm guanidine) pH 7.7, 3. inoculation): 1 (Minimal growth, 1 to 10 colonies visible over the entire streak) | Yeast growth after inoculation ([2]; +5000 ppm guanidine hydrochloride (3090 ppm guanidine) pH 7.6, 1. inoculation): 0 | Yeast growth after inoculation ([2]; +5000 ppm guanidine hydrochloride (3090 ppm guanidine) pH 7.6, 2. inoculation): 0 | Yeast growth after inoculation ([2]; +5000 ppm guanidine hydrochloride (3090 ppm guanidine) pH 7.6, 3. inoculation): 1 (Minimal growth, 1 to 10 colonies visible over the entire streak) | stability of the all-purpose cleaner to microbial infestation by yeasts ([2]; addition of 1516 ppm of guanidine in the form of guanidine hydrochloride at pH 7.7): distinct improvement in stability | Yeast growth after inoculation [3, 5]: 5 | Yeast growth after inoculation [3, 6]: 6 | Yeast growth after inoculation [3, 7]: 6 | stability of the body lotion to microbial infestation by yeasts ([3]; addition of 4553 ppm of guanidine in the form of guanidine hydrochloride at pH 6.9): distinct improvement in stability | Yeast growth after inoculation ([4]; +10000 ppm guanidine hydrochloride (6070 ppm guanidine) pH 6.8, 1. inoculation): 4 (Uniform growth, >400 colonies, single colonies still clearly recognizable) | Yeast growth after inoculation ([4]; +10000 ppm guanidine hydrochloride (6070 ppm guanidine) pH 6.8, 2. inoculation): 6 | Yeast growth after inoculation ([4]; +10000 ppm guanidine hydrochloride (6070 ppm guanidine) pH 6.8, 3. inoculation): 6 | stability of the shampoo to microbial infestation by yeasts ([4]; table 6, addition of 4553 ppm of guanidine in the form of guanidine hydrochloride at pH 6.9): distinct improvement in stability

CCCCCCC(O)CO (stereo not shown) [octanediol, octane-1,2-diol]
Bacterial growth after inoculation [1, 8]: 4 (Uniform growth, >400 colonies, single colonies still clearly recognizable) | Bacterial growth after inoculation [1, 9]: 6 | Bacterial growth after inoculation [1, 10]: 6 | Bacterial growth after inoculation [1, 11]: 1 (Minimal growth, 1 to 10 colonies visible over the entire streak) | Bacterial growth after inoculation [1, 12]: 3 (Moderate growth, maximum 300 to 400 colonies) | Bacterial growth after inoculation [1, 13]: 3 (Moderate growth, maximum 300 to 400 colonies) | Yeast growth after inoculation [3, 8]: 5 | Yeast growth after inoculation [3, 9]: 6 | Yeast growth after inoculation [3, 10]: 6 | Yeast growth after inoculation [3, 11]: 3 (Moderate growth, maximum 300 to 400 colonies) | Yeast growth after inoculation [3, 12]: 3 (Moderate growth, maximum 300 to 400 colonies) | Yeast growth after inoculation [3, 13]: 2 (Light growth, maximum 100 colonies) | Yeast growth after inoculation ([4]; +2500 ppm octanediol pH 6.9, 1. inoculation): 4 (Uniform growth, >400 colonies, single colonies still clearly recognizable) | Yeast growth after inoculation ([4]; +2500 ppm octanediol pH 6.9, 2. inoculation): 5 | Yeast growth after inoculation ([4]; +2500 ppm octanediol pH 6.9, 3. inoculation): 6 | Yeast growth after inoculation ([4]; +5000 ppm octanediol pH 6.9, 1. inoculation): 1 (Minimal growth, 1 to 10 colonies visible over the entire streak) | Yeast growth after inoculation ([4]; +5000 ppm octanediol pH 6.9, 2. inoculation): 2 (Light growth, maximum 100 colonies) | Yeast growth after inoculation ([4]; +5000 ppm octanediol pH 6.9, 3. inoculation): 2 (Light growth, maximum 100 colonies)
